From patent publication EP0574185B1, “PGE1 analogs” (NEWPHARMA INTERNATIONAL CORPORATION, priority 1992, dated 1993)
Like-named read-outs stand apart in the source and are kept apart here.

Experiments:
[1] = tested on: rat uterus under diestrous condition; assay: C2: effect on PGF2α induced in vitro contraction of rat uterus under diestrous condition; conditions: B-407 1x10^-8 M; PGF2α 10^-9M; nutrient solution 1,04; p < 0.02
Method: Then, a known concentration of the test prostaglandin was added and no washing was carried out during the following 15 minutes. PGF2α (10^-8 M) was added, washing once after 2 minutes and then twice over a total time period of 15 minutes. The result was expressed as the relationship between the effect of PGF2α after the treatment with B-407 and the sum of the effect of PGF2α (mean of the three initial additions) and the effect of B-407 "per se". The recordings of the contractions and their quantitation were performed as described in (A).
The experimental conditions were identical to those described in B2 and the working protocol was similar to that of C1 but the PGF2α concentration was of 10^-9M. The recordings of the contractions and their quantitation were performed as described in (A).
* p < 0.05: Tested vs. nutrient solution by ANOVA and Scheffe. ** p < 0.02: Tested vs. nutrient solution by Student's-t-test. Ratio = Effect of PGF2α after B-407/(Effect of PG F2α before B-407 + Effect of B-407). […]
The frequency and magnitude of the responses were globally evaluated by calculating the total area recorded at a fixed time period as will be further explained. […]
The calibration was made by weighing a piece of paper which corresponded to a tension of 1 g at the working sensitivity along 2 minutes. […] The results were expressed as the mean ± the standard error of the areas obtained. […]

[2] = tested on: Beagle dogs; assay: Volume and acidity of histamine stimulated gastric secretion in dogs (gastric fistula); type: in vivo
Method: Healthy adult Beagle dogs weighing 10 kg to 13 kg were used.
The basal response of each dog to histamine, as represented by volume of gastric secretion and acid concentration, was carried out six times. For this purpose the dogs were placed in a Pavlov support and plastic bottles were connected to a Thomas type gastric fistula after cleaning it when necessary.
Saline i.v. infusion was started by means of a Butterfly G 21 (Abbott) needle connected to a 500 ml bottle of sterile pyrogen free isotonic saline solution through an inert plastic cannula. The solution dripping was adjusted to 1 ml/min.
The volume of gastric secretion obtained from fifteen minutes collection periods, expressed as ml/15 min, was determined. Aliquots of 5 ml were kept in the freezer to perform acid titration on the next day. The first three collection periods were considered as the actual basal gastric secretion for each dog in the absence of any drug. Then the bottle of saline was changed for a solution of histamine. 2HCl at a concentration of […] in saline. The dripping was adjusted to 20 drops per minute (984 µg histamine/hour) After the plateau of augmented gastric secretion was reached, B-407 was administered.
Acid concentration, expressed as mEq H+/l was determined by titration with sodium hydroxide.

[3] = tested on: Swiss mice; assay: Exploratory activity in mice (open field); type: in vivo; conditions: i.p., control 88 ± 8, n=10
Method: The effect of B-407 on the exploratory activity was evaluated in Swiss mice of 30 g to 40 g in an open-field of 40 cm x 40 cm x 25 cm divided in 9 quadrants. One mouse at a time was placed into the open field to assess its exploratory activity by counting the number of quadrants crossed in 4 consecutive periods of 3 minutes each.
The working protocol consisted of two experiments with 3 groups of 10 animals each. In both experiments, each group of mice were pretreated with B-407, 0 µg/kg, 30 µg/kg and 100 µg/kg five min prior to the test. In one experiment, the animals were treated, p.o., with a combination of the antispasmodics homatropine methylbromide (5 mg/kg) and papaverine (5 mg/kg) administered 10 min prior to B-407. In the other experiment, this treatment was replaced by saline solution. The two experiments were carried out at the same time.
The results were expressed as the average ± standard error of each group and the statistical significance of the differences were evaluated by means of the Student's-t-test.

[4] = tested on: isolated uterus of estrogenized rats; assay: Effect on isolated uterus of estrogenized rats (non-cumulative concentration-response curves); set-up: species or system Wistar rats; conditions: for Area (g of tension/2 min): average
Method: Concentration-response curves were carried out on isolated uterus of estrogenized rats. Female Wistar rats weighing 250g to 300g were employed. The animals were pretreated with 0.1 mg/kg of estradiol, subcutaneously, 24 h before the experiment. The whole uterus was dissected and excised and a portion of 1 cm of one horn was incubated in a 10 ml organ bath, at 30°C, bubbled with a mixture of 95 % O2 plus 5 % CO2. The nutrient solution was De Jalon solution described in the International Pharmacopea II^nd Ed. and containing 4x10^-7 M sodium diclofenac. The organ was left to stabilize in the solution for one hour. No spontaneous contractions were detected under these experimental conditions. To carry out the concentration-response curves, volumes of solutions of either natural prostaglandins or B-407 were added in order to obtain concentrations in the organ bath between 10^-10 M and 3x10^-6 M. After 2 minutes, the organ was washed three times during a 15 minutes time period before adding the next test solution. In this way the concentration-response curves obtained were not cumulative ["The rat uterus preparation" in "Pharmacological Experiments on Isolated Preparations". E. and S. Livingstone Ltd. Edinburgh and London (1968), p. 92].
Recording of the contractions of the isolated uterus were on a Berger polygraph with a FT03C transducer. The frequency and magnitude of the responses were globally evaluated by calculating the total area recorded at fixed time periods as will be further explained.
The frequency and magnitude of the responses were globally evaluated by calculating the total area recorded at a fixed time period as will be further explained. The areas under the curve of the recording paper, over 15 minutes periods, were cut and weighed both in the concentration-response curves and in the potentiating experiments.
The calibration was made by weighing a piece of paper which corresponded to a tension of 1 g at the working sensitivity along 2 minutes. Therefore, a relationship of area expressed in g/2 min was obtained and then the weights of the areas of the responses were transformed to unities of area. The results were expressed as the mean ± the standard error of the areas obtained. The statistical evaluation of the differences was carried out either by ANOVA or by Student's-t-test, as appropriate.

[5] = Canis lupus familiaris, iv, read-out: VOLUME % Inhib.

Question: Which results are given for `CCCCC(C)(O)C/C=C/[C@H]1[C@H](O)CC(=O)[C@@H]1CCCC/C=C/C(=O)OC` (mixture of isomers) [B-407, trans-Δ^2-15-deoxy-16-hydroxy-16-methyl PGE1 methyl ester]?
Answer: Ratio = Effect of PGF2α after B-407/(Effect of PG F2α before B-407 + Effect of B-407) [1]: 2,35; inhibition at 0.003 mg/kg ([2]; Canis lupus familiaris, iv, read-out: ACIDITY % Inhib): 59.7%; inhibition at 0.001 mg/kg [2, 5]: 15.2%; inhibition at 0.003 mg/kg [2, 5]: 93.7%; ACIDITY % Inhib ([2]; i.g. 10 µg/kg): 42,5%; VOLUME % Inhib. ([2]; i.g. 10 µg/kg): 24,3%; VOLUME Max.eff. B-407 ([2]; i.g. 10 µg/kg, histamine plateau 42,0±3,6): 31,8±6,2 ml/15min; ACIDITY Max.Eff. B-407 ([2]; i.g. 10 µg/kg, histamine plateau 122,4±9,7): 70,4±11,8 mEq.H^+/l; ACIDITY % Inhib ([2]; i.g. 30 µg/kg): 31,8%; VOLUME % Inhib. ([2]; i.g. 30 µg/kg): 36,3%; VOLUME Max.eff. B-407 ([2]; i.g. 30 µg/kg, histamine plateau 38,3±2,6): 24,4±3,1 ml/15min; ACIDITY Max.Eff. B-407 ([2]; i.g. 30 µg/kg, histamine plateau 143,4±3,2): 97,8±13,2 mEq.H^+/l; VOLUME Max.eff. B-407 ([2]; i.v. 1 µg/kg, histamine plateau 39,5±3,4): 33,5±3,6 ml/15min; VOLUME Max.eff. B-407 ([2]; i.v. 3 µg/kg, histamine plateau 43,2±4,6): 2,7±1,3 ml/15min; ACIDITY Max.Eff. B-407 ([2]; i.v. 3 µg/kg, histamine plateau 145,3±3,0): 58,5±16,0 mEq.H^+/l; VOLUME % Inhib. ([2]; i.vag 10 µg/kg (n=3)): 100,0%; VOLUME Max.eff. B-407 ([2]; i.vag 10 µg/kg (n=3), histamine plateau 43,0±2,0): 0,0 ml/15min; ACIDITY % Inhib ([2]; i.vag 30 µg/kg (n=2)): 67,3%; VOLUME % Inhib. ([2]; i.vag 30 µg/kg (n=2)): 93,8%; VOLUME Max.eff. B-407 ([2]; i.vag 30 µg/kg (n=2), histamine plateau 38,5±8,5): 2,4±1,7 ml/15min; ACIDITY Max.Eff. B-407 ([2]; i.vag 30 µg/kg (n=2), histamine plateau 118,9±4,3): 38,9±19,9 mEq.H^+/l; ACIDITY % Inhib ([2]; i.vag. 1 µg/kg): 24,4%; VOLUME % Inhib. ([2]; i.vag. 1 µg/kg): 30,5%; VOLUME Max.eff. B-407 ([2]; i.vag. 1 µg/kg, histamine plateau 50,8±2,4): 35,3±5,3 ml/15min; ACIDITY Max.Eff. B-407 ([2]; i.vag. 1 µg/kg, histamine plateau 134,2±6,4): 101,4±13,3 mEq.H^+/l; ACIDITY % Inhib ([2]; i.vag. 3 µg/kg): 71,5%; VOLUME % Inhib. ([2]; i.vag. 3 µg/kg): 98,4%; VOLUME Max.eff. B-407 ([2]; i.vag. 3 µg/kg, histamine plateau 49,1±2,5): 0,8±0,4 ml/15min; ACIDITY Max.Eff. B-407 ([2]; i.vag. 3 µg/kg, histamine plateau 132,6±8,7): 37,8±12,7 mEq.H^+/l; N° Quadrants/12 min ([3]; 30 µg/kg): 87 ± 8; N° Quadrants/12 min ([3]; 100 µg/kg, p < 0,05): 48 ± 8; Area (g of tension/2 min) ([4]; 1x10^-6 M, n=6): 1,13 g of tension/ 2 min; Area (g of tension/2 min) ([4]; 1x10^-7 M, n=6): 0,31 g of tension/ 2 min; Area (g of tension/2 min) ([4]; 1x10^-8 M, n=6): 0,20 g of tension/ 2 min; Area (g of tension/2 min) ([4]; 1x10^-9 M, n=6): 0,12 g of tension/ 2 min; Area (g of tension/2 min) ([4]; 1x10^-10 M, n=6): 0,14 g of tension/ 2 min; Area (g of tension/2 min) ([4]; 3x10^-6 M, n=5): 0,67 g of tension/ 2 min; times less potent than PGE1 on rat uterine contractility in vitro ([4]; PGE1 results are not shown): about 4 times
